Our source for the EC50, CC50 and Selectivity index values is ChEMBL document CHEMBL1130104 (J Med Chem, 1997).

Each structure is given as a SMILES string.

Series [1] relates to HeLa. As to the kind of experiment: Compound was tested for Anti-HIV activity by plaque reduction assay with E89K virus in HT4-6C human CD4+ […]. The format is functional, cell-based.
Series [2] can be described thus: compound was tested for 50% toxic concentration by flow cytometry after propidium iodide staining after 3 days of drug treatment in CEM lymphoblast cells. The following applies: human, read-out: TC50.
The subject of series [3] is HeLa. Briefly: Compound was tested for Anti-HIV activity by plaque reduction assay with wild type HIV-1LAI virus in HT4-6C human CD4+ […]. The format is functional, cell-based.
In series [4] the test system is HeLa. Briefly: Compound was tested for Anti-HIV activity by plaque reduction assay with A018-post virus in HT4-6C human CD4+ […]. The format is functional, cell-based.
A short description of series [5]: selectivity index expressed as TC50/EC50; EC50 values are calculated from […] cells infected with HIV-1LAI. The format is functional.
Series [6] in a line: selectivity index = TC50/EC50. The EC50 values are calculated from CEM lymphoblast cells infected with HIV-1LAI virus. It is filed as functional, CCRF-CEM.
For series [7], the system named is HeLa. Briefly: compound was tested for 50% toxic concentration by visual grading scale of cells after 3 days of drug treatment in HT4-6C cells. The following applies: Homo sapiens, 72 h, read-out: TC50 (the source's name). The format is functional.
The nature of series [8]: selectivity index expressed as TC50/EC50; EC50 values are calculated from HT4-6C cells infected with HIV-1LAI virus.

As to `CCCCCCCCCCCCCCCCCCCCOC(=O)P(=O)(O)OC[C@H]1O[C@@H](n2cc(C)c(=O)[nH]c2=O)C[C@@H]1N=[N+]=[N-].N`, the concentration for a half-maximal effect (EC50) worked out at 0.009 µM with HeLa [1], 140 nM in the series with HeLa [3] and 530 nM with HeLa [4]. For the same compound, in series [2], the CC50 at 72 h was 36 µM. For the same compound, the Selectivity index is given as 228 in series [5] and 257 in series [6]. Moreover, the CC50 with HeLa [7] was found to be 32 µM.
With `CCCCCCCCCCCCCCCCCCCCCCOC(=O)P(=O)(O)OC[C@H]1O[C@@H](n2cc(C)c(=O)[nH]c2=O)C[C@@H]1N=[N+]=[N-].N`, the EC50 with HeLa [1] turned out to be 0.17 µM; with HeLa [3] it was 320 nM; in the series on HeLa [4] it was 770 nM. Besides, the CC50 at 72 h in series [2] was determined as 93 µM. For the same compound, the Selectivity index in series [5] is 1000; in series [6], 291. Also, in the series on HeLa [7], the CC50 was 320 µM.
Regarding `O=C(O)P(=O)(O)O` [FOSCARNET], the values for the EC50 in the series on HeLa [1], in the series with HeLa [3] and in the series on HeLa [4] were over 1000 µM, 133000 nM and 65000 nM, respectively. Moreover, the CC50 at 72 h in series [2] worked out at 800 µM. In addition, the values for the Selectivity index in series [8] and in series [5] were 6 and over 7.5, respectively. In addition, the CC50 with HeLa [7] amounted to 1000 µM.
Consider `CCCCCCCCCCCCCCCCCCOC(=O)P(=O)(O)OC[C@H]1O[C@@H](n2cc(C)c(=O)[nH]c2=O)C[C@@H]1N=[N+]=[N-].N`, for which the results for the EC50 in the series on HeLa [1], in the series on HeLa [3] and in the series on HeLa [4] were 0.13 µM, 100 nM and 300 nM, respectively. Moreover, in series [2], the CC50 at 72 h was found to be 28 µM. In addition, the figures for the Selectivity index in series [8] and in series [5] were 280 and 100, respectively. Besides, the CC50 with HeLa [7] worked out at 10 µM.
In the case of `Cc1cn([C@H]2C[C@H](N=[N+]=[N-])[C@@H](CO)O2)c(=O)[nH]c1=O` [ZIDOVUDINE], the EC50 with HeLa [1] is 0.009 µM; in the series with HeLa [3], 13 nM; in the series with HeLa [4] it was 2900 nM.
